Experiment [1] in a line: The effective concentration for 50% glutamate response was measured on Group I Metabotropic glutamate receptor. Type of experiment: functional.
Experiment [2] can be described thus: The effective concentration for 50% glutamate response was measured on Group II Metabotropic glutamate receptor. Type of experiment: functional.
Experiment [3] is described as follows: (§1) Percentage of glutamate maximal response was measured on Group II Metabotropic glutamate receptor. Type of experiment: functional.
The nature of experiment [4]: as §1. Type of experiment: functional. The source holds these as a separate data set.
Experiment [5] in a line: Percent glutamate response was measured on group 1 Metabotropic Glutamate Receptors.

For 20 compounds, EC50 and Response results are on record in ChEMBL document CHEMBL1132315, “Pharmacophore models of group I and group II metabotropic glutamate receptor agonists. Analysis of conformational, steric, and topological parameters affecting potency and selectivity” (J Med Chem, 1999).

Structures are written as SMILES. Bounds are passed on as bounds.

Regarding `N[C@@H](CCC(=O)O)C(=O)O` [GLUTAMIC ACID], the results for the EC50 in experiment [1] and in experiment [2] were 4.9 µM and 0.29 µM, respectively.
For `N[C@@]1(C(=O)O)CC[C@H]2[C@H](C(=O)O)[C@H]21` [EGLUMETAD], in that order: > 1000 µM and 0.032 µM.
`NC1(C(=O)O)CC2CCC1C2C(=O)O` (stereo in doubt; 8): the Response in experiment [3] is 50%.
With `N[C@]1(C(=O)O)CC[C@H](C(=O)O)C1`, the EC50 in experiment [1] was found to be 127 µM; in experiment [2], 110 µM.
For `N[C@@H](Cn1oc(=O)[nH]c1=O)C(=O)O` [QUISQUALATE], in that order: 0.9 µM and 100 µM.
`N[C@H](C(=O)O)c1cc(O)cc(O)c1`: in experiment [1], the midpoint of the response, the EC50, lay at 6.6 µM.
Take `N[C@@H](C(=O)O)[C@@H]1CC1C(=O)O` (single isomer, unassigned): a half-maximal response in experiment [1] (EC50) required 20 µM.
`N[C@@]1(C(=O)O)CN[C@@H](C(=O)O)C1`: the values for the concentration giving a half-maximal response (EC50) in experiment [1] and in experiment [2] were > 1000 µM and 3.5 µM, respectively.
With `N[C@H](C(=O)O)c1cccc(O)c1`, the Response in experiment [3] was < 15%.
The compound `NC(C(=O)O)C1[C@@H](C(=O)O)[C@@H]1C(=O)O` (stereo not given in full) yielded an EC50 in experiment [4] of 0.1 µM.
Turning to `NC1(C(=O)O)CC2CCC1C2C(=O)O` (stereo in doubt; 9), the Response came to 12% in experiment [5] and 50% in experiment [3].
Take `NC1(C(=O)O)CC2CC1C2C(=O)O` (stereo in doubt; 22): the EC50 in experiment [1] was 232 µM; in experiment [2], 38 µM.
Consider `NC1(C(=O)O)CC2CC1C2C(=O)O` (stereo in doubt; 12), for which the values for the concentration for a half-maximal effect (EC50) in experiment [1] and in experiment [2] were 1.6 µM and 0.33 µM, respectively.
On to `NC1(C(=O)O)CC2CC1C2C(=O)O` (stereo in doubt; 21), for which the EC50 in experiment [1] is 121 µM; in experiment [2], 54 µM.
For `N[C@H](C(=O)O)c1cc(O)no1` [IBOTENIC ACID], the EC50 is 6 µM in experiment [1] and 50 µM in experiment [2].
As for `N[C@@H](C(=O)O)[C@H]1CC1C(=O)O` (single isomer, unassigned), the EC50 was 5 µM in experiment [1] and 0.3 µM in experiment [2].
As to `N[C@@]1(C(=O)O)CC[C@@H](C(=O)O)C1`, the EC50 in experiment [1] worked out at 9.3 µM; in experiment [2], 18 µM.
As to `N[C@@]1(C(=O)O)CC[C@H](C(=O)O)C1`, the concentration giving a half-maximal response (EC50) in experiment [1] was > 300 µM; in experiment [2] it was 13 µM.
For `O=C(O)[C@H]1C[C@H](C(=O)O)N1`, the figures for the EC50 in experiment [1] and in experiment [2] were 189 µM and > 100 µM, respectively.
Regarding `NC1(C(=O)O)C2CCC1C(C(=O)O)C2` (stereo not given), in experiment [5], the Response is 10%. For the same compound, in experiment [4], a half-maximal effect (EC50) was put at 30 µM.
